Assay results published in ChEMBL document CHEMBL3045725, “Synthesis and antimicrobial activity of some (3-phenyl-5-(1-phenyl-3-aryl-1H-pyrazol-4-yl)-4,5-dihydro-1H-pyrazol-1-yl)(pyridin-4-yl)methanones: new derivatives of 1,3,5-trisubstituted pyrazolines” (2013).
In brackets after ≈: the same amount, converted by molar mass.

What was measured:
Format in all cases: functional
Bacillus subtilis = test: Antibacterial activity against Bacillus subtilis assessed as growth inhibition after 24 hr by NCCLS broth microdilution method
Aspergillus niger = test: Antifungal activity against Aspergillus niger assessed as growth inhibition after 24 hr by NCCLS broth microdilution method
Staphylococcus aureus = test: Antibacterial activity against Staphylococcus aureus assessed as growth inhibition after 24 hr by NCCLS broth microdilution method
Aspergillus flavus = test: Antifungal activity against Aspergillus flavus assessed as growth inhibition after 24 hr by NCCLS broth microdilution method
Candida albicans = test: Antifungal activity against Candida albicans assessed as growth inhibition after 24 hr by NCCLS broth microdilution method
Pseudomonas aeruginosa = test: Antibacterial activity against Pseudomonas aeruginosa assessed as growth inhibition after 24 hr by NCCLS broth microdilution method
Bacillus pumilus = test: Antibacterial activity against Bacillus pumilus assessed as growth inhibition after 24 hr by NCCLS broth microdilution method
Candida tropicalis = test: Antifungal activity against Candida tropicalis assessed as growth inhibition after 24 hr by NCCLS broth microdilution method
Escherichia coli = test: Antibacterial activity against Escherichia coli assessed as growth inhibition after 24 hr by NCCLS broth microdilution method

SMILES	MIC (Bacillus subtilis) [µg/mL]	MIC (Aspergillus niger) [µg/mL]	MIC (Staphylococcus aureus) [µg/mL]	MIC (Aspergillus flavus) [µg/mL]	MIC (Candida albicans) [µg/mL]	MIC (Pseudomonas aeruginosa) [µg/mL]	MIC (Bacillus pumilus) [µg/mL]	MIC (Candida tropicalis) [µg/mL]	MIC (Escherichia coli) [µg/mL]
COc1ccc(-c2nn(-c3ccccc3)cc2C2CC(c3ccccc3)=NN2C(=O)c2ccncc2)cc1 (racemic)	6.25 (≈ 12.5 µM)	50 (≈ 100 µM)	6.25 (≈ 12.5 µM)	50 (≈ 100 µM)	12.5 (≈ 25 µM)	12.5 (≈ 25 µM)	6.25 (≈ 12.5 µM)	12.5 (≈ 25 µM)	6.25 (≈ 12.5 µM)
COc1ccccc1-c1nn(-c2ccccc2)cc1C1CC(c2ccccc2)=NN1C(=O)c1ccncc1 (racemic)	6.25 (≈ 12.5 µM)	50 (≈ 100 µM)	6.25 (≈ 12.5 µM)	50 (≈ 100 µM)	6.25 (≈ 12.5 µM)	6.25 (≈ 12.5 µM)	6.25 (≈ 12.5 µM)	6.25 (≈ 12.5 µM)	6.25 (≈ 12.5 µM)
Cc1ccc(-c2nn(-c3ccccc3)cc2C2CC(c3ccccc3)=NN2C(=O)c2ccncc2)cc1 (racemic)	12.5 (≈ 25.8 µM)	100 (≈ 207 µM)	6.25 (≈ 12.9 µM)	100 (≈ 207 µM)	25 (≈ 51.7 µM)	25 (≈ 51.7 µM)	12.5 (≈ 25.8 µM)	50 (≈ 103 µM)	12.5 (≈ 25.8 µM)
O=C(c1ccncc1)N1N=C(c2ccccc2)CC1c1cn(-c2ccccc2)nc1-c1ccc(F)cc1 (racemic)	12.5 (≈ 25.6 µM)	200 (≈ 410 µM)	6.25 (≈ 12.8 µM)	200 (≈ 410 µM)	50 (≈ 103 µM)	12.5 (≈ 25.6 µM)	25 (≈ 51.3 µM)	50 (≈ 103 µM)	12.5 (≈ 25.6 µM)
O=C(c1ccncc1)N1N=C(c2ccccc2)CC1c1cn(-c2ccccc2)nc1-c1ccc(Cl)cc1 (racemic)	25 (≈ 49.6 µM)	> 200	12.5 (≈ 24.8 µM)	200 (≈ 397 µM)	100 (≈ 198 µM)	25 (≈ 49.6 µM)	25 (≈ 49.6 µM)	100 (≈ 198 µM)	25 (≈ 49.6 µM)
O=C(c1ccncc1)N1N=C(c2ccccc2)CC1c1cn(-c2ccccc2)nc1-c1ccc(Br)cc1 (racemic)	25 (≈ 45.6 µM)	> 200	12.5 (≈ 22.8 µM)	200 (≈ 365 µM)	50 (≈ 91.2 µM)	50 (≈ 91.2 µM)	25 (≈ 45.6 µM)	100 (≈ 182 µM)	50 (≈ 91.2 µM)
O=C(c1ccncc1)N1N=C(c2ccccc2)CC1c1cn(-c2ccccc2)nc1-c1ccccc1 (racemic)	50 (≈ 106 µM)	100 (≈ 213 µM)	25 (≈ 53.2 µM)	> 200	200 (≈ 426 µM)	50 (≈ 106 µM)	50 (≈ 106 µM)	200 (≈ 426 µM)	50 (≈ 106 µM)
O=C(O)c1cn(C2CC2)c2cc(N3CCNCC3)c(F)cc2c1=O [CIPROFLOXACIN]	3.12 (≈ 9.43 µM)	–	3.12 (≈ 9.43 µM)	–	–	3.12 (≈ 9.43 µM)	3.12 (≈ 9.43 µM)	–	3.12 (≈ 9.43 µM)
OC(Cn1cncn1)(Cn1cncn1)c1ccc(F)cc1F [FLUCONAZOLE]	–	12.5 (≈ 40.8 µM)	–	12.5 (≈ 40.8 µM)	3.12 (≈ 10.2 µM)	–	–	6.25 (≈ 20.4 µM)	–
